Experimental data published in US20240059739A1, “PEPTIDES FOR INCREASING DRUG DELIVERY TO CANCER” (Chapman University, priority 2022, published 2024).
Where a SMILES comes first, the peptide text is derived from it.

Assays:
[1] = system: human melanoma cell lines (A375, Sk-mel-28, wm115) compared to normal human HEK-293 cells; test: Peptide array-whole cell binding assay (CyQUANT fluorescence); format: cell-based; settings: average fluorescent intensity of melanoma cells (A375, Sk-mel-28, wm115) bound to peptide divided by that of HEK-293 cells bound to same peptide
From the text: Peptide array synthesis. Fifty-three peptide sequences were synthesized in duplicate on derivatized cellulose membrane (Intavis, Germany) using a ResPep SL Autospot robot. The detailed method was explained previously (Ahmed et al. Anal Chem. 82:7533-7541, 2010; Hossein-Nejad-Ariani et al. Sci Rep. 9:2723, 2019). Briefly, the sequences of peptides were entered in the robot software, and 384 spot synthesis mode was selected for this library. First, the membrane was dipped in DMF for an hour followed by transfer and support to the holder of the robot on filter paper. Then the membrane was washed with ethanol and subjected to a vacuum to remove any bubbles under the membrane. The Fmoc strategy was used for peptide synthesis. DIC and Oxyma pure were used as coupling reagent and racemization suppressor, respectively. After each coupling, capping of unreacted amino acids was done using acetic anhydride (3%), followed by 20% piperidine for Fmoc deprotection. The C-terminal end of all peptides were bound to the membrane. Following the synthesis, the membrane was dipped in deprotection solution containing 15 mL TFA, 15 mL DCM, 900 μL TIPS, and 600 μL water, and kept for 3 h at room temperature. Next, membranes were thoroughly washed with DCM, DMF, and ethanol. Finally, they were air dried and kept in a sealed bag at −20° C. until use.
Peptide array cell binding assay. The sequential steps of the assay are as described in a previous publication (Ahmed et al. 2010; Soudy et al. J Med Chem. 54:7523-7534, 2011). The membrane was dipped in ethanol for 30 sec to remove any precipitation of hydrophobic peptides. Then the membrane was dipped in sterile PBS at pH 7.4 for 30 min. The cells (75×10^3 cells/mL) were seeded directly on the membrane in a sterile plate and incubated at 37° C. for 4 h. After washing off the unbound cells with sterile PBS, pH 7.4, the membrane was frozen at −80° C. for 2 h. Subsequently, it was defrosted at room temperature and incubated in CyQUANT solution at 37° C. for 30 min following the manufacturer's protocol. The membrane was then washed with sterile PBS and air-dried.
Membranes were scanned using the ChemiDoc™ XRS+system (Bio-Rad) to analyze the fluorescence intensity of each spot. The setting was adjusted based on the excitation and emission wavelength of the CyQUANT dye at 465 nm and 535 nm, respectively. The fluorescence intensity (FI) was normalized by the FI of non-cancerous HEK-293 cells.
A library of 53 peptides was synthesized in an array format on a cellulose membrane using SPOT synthesis (Table 1). The peptide library was designed starting with five lead cancer cell targeting peptides, Arg peptide (1, Table 1), p160 analogue (11), RGD (16), GE11 (20), and LSD (37). Conservative substitutions, deletion from the N- or C-terminus, alanine scan, and scrambling of amino acids were used to design the analogues for the library. The peptides were screened for specific binding to three human melanoma cell lines. The cells were incubated with the cellulose membranes with conjugated peptides followed by incubation with CyQUANT fluorescence dye. A brief schematic for the peptide array-whole cell binding assay for screening peptides with high affinity for melanoma cells is shown in FIG. 2A. The relative cell adhesion capacities of the peptides to A375 (FIG. 2B), Sk-mel-28 (FIG. 2C), and wm115 were estimated based on the fluorescence of the bound melanoma cells compared to normal human HEK-293 cells.

[2] = system: human melanoma cells (wm3211, Sk-mel-28, A375); test: In vitro cellular uptake of FITC-labeled peptides by flow cytometry (FACS); format: cell-based; settings: 0.5 and 1 μM
Protocol: (§1) The bar represents the average fluorescence density of three cell lines (A375, Sk-mel-28, and wm3211 cells) detected by fluorescence-activated cell sorting (FACS) analysis. The cells were incubated with FITC-labeled peptide for […] at 37° C. (0.5 μM, grey bar; 1 μM, dark bar). The control is cells incubated with FITC alone. […] Cells were either treated with DOX or co-treated with DOX and KK-11 (1 μM) for 72 h (KK-11+DOX) or pretreated with KK-11 for 4 h, then washed away following a DOX 72 h treatment (KK-11 to DOX). Control is DMSO or KK-11 alone. Cell viability was detected by a MTT colorimetric assay. Statistical analysis was performed with a student's t-test, and error bars denote mean±SD; **, p<0.01; ***, p<0.001 compared to DOX alone. […] Cells were treated with MAC-3-190 at various concentrations with or without 1 μM KK-11 for 72 h. Cell viability was detected by MTT assay. The assays were repeated independently at least three times.
In vitro cellular uptake analysis. The peptide (FITC-labeled) concentration was determined using a Shimadzu BioSpec-nano Micro-volume UV-Vis spectrophotometer (Shimadzu). Human melanoma cells (wm3211, Sk-mel-28, and A375) were incubated with FITC or FITC-labeled peptides at final concentrations of 0.5 μM and 1 μM for 2 h. […] The mean fluorescence density of 10,000 cells was analyzed and compared to that of control cells.

[3] = system: A375 human melanoma xenograft; test: In vivo xenograft melanoma mouse model
Protocol: FIG. 5A; the tumors were measured three times a week using digital Vernier calipers. Tumor volume (mm^3) was calculated as [Length×(Width^2)/2. […] FIG. 5C; the body weights of the mice were measured after 21 days of treatment. Statistical analysis was performed with student's t-test and error bars denote mean±SD: *, p<0.05 compared to control group.
In vivo xenograft melanoma mouse model. Nude mice (Nu/Nu) were purchased from Charles River (Wilmington, MA) and were housed and maintained in the Chapman University vivarium under pathogen-free conditions. A375 cells were suspended in cold Matrigel and injected subcutaneously into the flank of each mouse (1×10^6 cells per mouse) to establish tumors. […] For the co-treatment, the solution of D-aa KK-11 and MAC-3-190 (1:11 molar ratio) was mixed gently and incubated at room temperature for 30 min before injection via tail vein. The growth of the tumors was monitored three times a week and measured using digital Vernier calipers. The tumor volume (mm^3) was calculated as [Length×(Width^2)]/2 (in mm). The mice were sacrificed after 21 days per IACUC policy when the control group's average tumor size reached 2,000 mm^3. Tumor xenografts were removed and weighed.

A375 melanoma cells = test: In vitro cytotoxicity detected by MTT colorimetric assay; format: cell-based, human; settings: in vitro
Protocol: as §1
In vitro cytotoxicity detected by MTT colorimetric assay. Cells were seeded in a 96-well plate and allowed to adhere overnight prior to adding the compound. After 72 h of treatment in serum-free media, an MTT solution was added to each well to give a final concentration of 0.5 mg/mL and was incubated for 3 h. Formed crystals were solubilized, and the absorbance was measured at 595 nm.

[4] = Serum stability (RP-HPLC AUC of intact peptide); format: in vitro ADME
Protocol: Serum stability. Human serum (250 μL) was thawed to room temperature and was added to DMEM media (650 μL). The mixture was kept in a 37° C. incubator to mimic human body temperature for 15 min. The peptide (100 μL, 1 mM) was dissolved (dispersed) in sterile water. The peptide solution was added to the pre-warmed human serum and DMEM mixture. The mixture was incubated at 37° C. At different time points (0, 0.5, 1, 5, and 24 h) aliquots (100 μL) were removed and added to methanol (200 μL). Each time point sample was kept at 4° C. for 5 min and then was centrifuged at 500×g for 15 min to separate serum proteins. The supernatant was injected into the RP-HPLC, and the major peaks were collected. The peak's mass was determined using MALDI-TOF mass analysis. The serum stabilities of the D-aa KK-11 were determined by comparing the HPLC peaks (AUC) for the intact peptides at different time points.
For in vivo studies, peptide KK-11 was labeled with a fluorescent Vivotag 680 XL in the N-terminus (Scheme 1). In addition, two amino acids in the sequence (norleucine and arginine) were substituted with D-amino acids to increase proteolytic stability. These amino acids were identified as proteolytically labile sites. The D-aa KK-11 peptide was assembled on acid-labile Rink amide resin and was characterized. The proteolytic stability of the D-aa KK-11 peptide was evaluated by incubating with human serum. The presence of the intact peptide after incubation with human serum for different time periods was detected using RP-HPLC and confirmed by MALDI-TOF mass analysis. […] However, peptide KK-11 with all L-amino acids reduced to an undetectable level within 30 min (data not shown). For conjugating VivoTag 680 XL dye, the peptide was modified by incorporating a β-alanine moiety generating the precursor Aβ-KK-11. The structure and mass of Aβ-KK-11 were confirmed by NMR (^1H and ^13C) and MALDI-TOF [M+H]^+ 1588.5 Da. Next, the β-alanine terminal amino group was allowed to react with the succinimidyl ester group of the reactive fluorophore (VivoTag 680 XL) under basic conditions in polar aprotic solvent, generating the fluorescently labeled peptide with extrusion of N-hydroxysuccinimide (NHS) (Scheme 1). The mass of the fluorescence-labeled VivoTag-Aβ-KK-11 was confirmed by MALDI-TOF, showing a peak at 2823.4 Da, corresponding to [M+H]^+.

[5] = system: human primary glioma U87 cells; test: Binding to glioma cells (data not shown); format: cell-based
[6] = system: human melanoma A375 tumor xenografts and organs; test: In vivo and ex vivo imaging of biodistribution in mice bearing A375 xenografts; set-up: species or system athymic nude mice; settings: ex vivo imaging
Protocol: FIG. 4A and FIG. 4B-1 and FIG. 4B-2 show in vivo and ex vivo organ distribution images of VivoTag 680 XL-labeled D-aa KK-11 in athymic nude mice bearing human melanoma A375 tumors. Saline or VivoTag-KK-11 in a dose of 8 μg per mouse was injected into the mice via the tail vein (n=2 for each time point).
The top panels represent the scanned images of the tumor section area in coronal views. The bottom-row pictures display the fluorescence image in trans-axial views: arrows point to the spine, and circles mark the xenograft tumors.
Organs including tumor xenografts (T), liver (L), spleen (S), heart and lungs (H+L), kidneys (K), and brain (B) were excised and imaged using the IVIS Spectrum imaging system. Representative fluorescence images of different organs show peptide distribution at different time points as indicated.
Ex vivo and in vivo imaging. The study was carried out in compliance with Animal Research: Reporting of In Vivo Experiments (ARRIVE) guidelines. All the animal procedures were approved by the Institutional Animal Care and Use Committee (IACUC) at Chapman University and conducted in compliance with the policies of Chapman University, and federal, state, and local animal welfare authorities. Male and female athymic nude mice (4-6 weeks old) were kept (5 in each cage) in a pathogen-free environment. Approximately 10^6 human melanoma A375 cells (0.1 mL in normal saline), mixed with 0.1 mL cold Matrigel (#354248; Corning, Corning, NY), were injected subcutaneously in the flank. The tumor size was measured with a caliper, and body weight was recorded once a week. When the tumor size reached approximately 800-1000 mm^3 as calculated using the following formula: [Length×(Width^2)]/2 (in mm), mice were processed for in vivo or ex vivo imaging.
For in vivo imaging, normal saline or VivoTag-KK-11 at a dose of 8 μg per mouse was injected into the mice via the tail vein (n=2 for each time point). The animals were then scanned at different time intervals (0.5, 2, 6, and 24 h) using an IVIS Spectrum in vivo imaging system (PerkinElmer, Waltham, MA). The mice were imaged for 0.5 sec, 10 bin, level B at an emission wavelength of 688±5 nm. Imaging was limited to no more than once a day and was conducted under continuously maintained isoflurane. Mice were maintained on alfalfa-free diets to minimize the background fluorescence. All the study animals survived through the in vivo imaging procedure.
For ex vivo imaging at defined time intervals (5, 15, 30 min, followed by 1, 1.5, 2, 3, 4, 6, 24, and 48 h) following fluorescence conjugate injection, animals were euthanized via carbon dioxide inhalation (n=2 for each time point); tumor, liver, spleen, heart, lungs, brain, and kidneys were collected and briefly rinsed with saline. The organs were then imaged for 0.5 sec, 10 bin, level B at an emission wavelength of 688±5 nm using an IVIS Spectrum imaging system.

Compound | Fluorescence Ratio [1] | uptake by melanoma cells (in words) [2] | toxicity of peptide alone in vivo [3] | cytotoxicity of peptide alone (A375 melanoma cells) | time until reduced to an undetectable level ([4]; human serum, data not shown) [min] | binding to U87 cells [5] | time at which fluorescence is evident in tumor xenografts ([6]; 8 μg per mouse, tail vein) [min] | time fluorescence remained detectable in tumor xenografts ([6]; single tail vein injection) | remaining at 5 h, 100 µM ([4]; human serum (25% v/v in DMEM), 37° C., 5 h, read-out: area under the curve of the peptide peak, of control (t=0 h)) [%] | remaining at 24 h, 100 µM ([4]; human serum (25% v/v in DMEM), 37° C., 24 h, read-out: area under the curve of the peptide peak / peptide remaining, of control (t=0 h)) [%] | area under the curve of the peptide peak / peptide remaining, of control (t=0 h) ([4]; human serum, 37° C., 24 h) [%]
GRRPRPRPRP [Peptide 1, FITC-labeled (β-alanine spacer) in the uptake study] | 1.82 | significantly increased uptake | – | – | – | – | – | – | – | – | –
VPWXEPAYQRFL [Peptide 11, X stands for norleucine] | 1.80 | – | No cytotoxicity | No cytotoxicity | ≤ 30 | can also bind | – | – | – | – | –
CCCC[C@@H](NC(=O)[C@H](Cc1c[nH]c2ccccc12)NC(=O)[C@@H]1CCCN1C(=O)[C@@H](N)C(C)C)C(=O)N[C@@H](CCC(=O)O)C(=O)N1CCC[C@H]1C(=O)N[C@@H](C)C(=O)N[C@@H](Cc1ccc(O)cc1)C(=O)N[C@@H](CCC(N)=O)C(=O)N[C@H](CCCNC(=N)N)C(=O)N[C@@H](Cc1ccccc1)C(=O)N[C@@H](CC(C)C)C(N)=O [D-aa KK-11, VPWxEPAYQrFL] (HELM PEPTIDE1{V.P.W.[CCCC[C@@H](N[*:1])C(=O)[*:2]].E.P.A.Y.Q.[dR].F.L.[am]}$$$$V2.0; N-terminus assumed) | – | – | – | – | – | – | ≤ 5 | up to 24 h | 97.4 | 45.3 | 45.3
